# Measurements reported in EP3345917A1, “ANTIPROTOZOAL COMPOUNDS” (Bacoba AG, priority 2017, dated 2018).
# Non-standard residues stand in square brackets, D forms with d. Residues, ends and D or L forms follow the SMILES beside them. *: point of attachment. Hexenoyl(2E,4S-Me) = CC[C@H](C)/C=C/C(=O)*; Leu(3R-OH) = CC(C)[C@@H](O)[C@H](N)C(=O)O; NHCH2CH2(piperidin-1-yl) = C1CCN(CCN*)CC1; NH((S)CH(Me)CH2NMe2) = C[C@@H](CN(C)C)N*; NH(2-morpholinoethyl) = C(CN1CCOCC1)N*; Gly(octyl) = CCCCCCCC[C@H](N)C(=O)O; hCha = N[C@@H](CCC1CCCCC1)C(=O)O; NH(CH2)3NMe2 = CN(C)CCCN*; Hexanoyl = CCCCCC(=O)*; Aib = CC(C)(N)C(=O)O; X6 = CCCN(CCC)CCN*; βAla = NCCC(=O)O
# Key:
# [1] = tested on: Trypanosoma cruzi trypomastigote forms (Tulahuen strain); assay: Intracellular Trypanosoma cruzi assay in L6-cells, beta-galactosidase/CPRG readout; assay type: cell-based; conditions: In vitro inhibition, read-out: T.cruzi.
# Method in brief: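 Readout was β-galactosidase cleavage of CPRG, read photometrically at 540 nm after 2–6 h colour development, giving IC50 values. Parasites: LacZ-expressing Tulahuen C2C4 strain grown in rat L6 myoblasts; run in triplicate.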
# [2] = tested on: intracellular Leishmania donovani (L.don. InMac); assay: Intracellular Leishmania donovani assay (L.don. InMac); assay type: cell-based; conditions: In vitro inhibition
# From the text: (§1) Tests were done in triplicate.
# [3] = tested on: Trypanosoma brucei rhodesiense (STIB 900 strain); assay: Alamar Blue assay against Trypanosoma brucei rhodesiense grown in axenic medium; assay type: cell-based; conditions: In vitro inhibition, read-out: T.b.rhod.
# Method in brief: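 Alamar Blue-based IC50 determination, in triplicate, on axenically grown STIB 900 trypanosomes. Melarsoprol included as reference.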
# [4] = tested on: Axenically grown Leishmania donovani amastigotes (strain MHOM/ET/67/L82); assay: Axenic Leishmania donovani amastigote resazurin assay; assay type: cell-based; conditions: In vitro inhibition, read-out: L.don. ax
# Method in brief: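 IC50 values derive from resazurin fluorescence (ex 536 nm, em 588 nm), expressed relative to the negative control, after 2-4 hours of plate development. Axenic amastigotes of strain MHOM/ET/67/L82 were used; each test run in triplicate.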
# [5] = Cytotoxicity assay on L6-cells (Alamar Blue); conditions: rat, Cytotox L6, Cytotoxicity against rat myoblast cells (L6)
# Plasmodium falciparum = assay: 3H-hypoxanthine incorporation assay against Plasmodium falciparum; assay type: cell-based; conditions: In vitro inhibition, read-out: P.falc NF5
# Procedure: as §1
# IC50 values were calculated by linear interpolation.
Structure (SMILES),IC50 [1] [nM],IC50 [2] [nM],IC50 [3] [nM],IC50 [4] [nM],IC50 at 70 h [5] [nM],IC50 (Plasmodium falciparum) [nM]
"CCCCCCCC[C@H](NC(=O)[C@@H]1CCCN1C(=O)CCCCC)C(=O)N[C@@H](CC(C)C)C(=O)NC(C)(C)C(=O)N[C@@H](CC(C)C)C(=O)N[C@@H](CC(C)C)C(=O)NC(C)(C)C(=O)NC(C)(C)C(=O)NCCC(=O)NCCN1CCCCC1 [Compound 5647, (2S)-2-{[(2S)-1-hexanoylpyrrolidin-2-yl]formamido}-N-[(1S)-3-methyl-1-[(1-methyl-1-{[(1S)-3-methyl-1-{[(1S)-3-methyl-1-{[1-methyl-1-({1-methyl-1-[(2-{[2-(piperidin-1-yl)ethyl]carbamoyl}ethyl)carbamoyl]ethyl}carbamoyl)ethyl]carbamoyl}butyl]carbamoyl}butyl]carbamoyl}ethyl)carbamoyl]butyl]decanamide] (Hexanoyl-P[Gly(octyl)]L[Aib]LL[Aib][Aib][βAla]-{NHCH2CH2(piperidin-1-yl)})",13.4,62.1,3.6,3,182,0.6
"CCCCCC(=O)N1CCC[C@H]1C(=O)N[C@@H](CCC1CCCCC1)C(=O)N[C@@H](CC(C)C)C(=O)NC(C)(C)C(=O)N[C@@H](CC(C)C)C(=O)N[C@@H](CC(C)C)C(=O)NC(C)(C)C(=O)NC(C)(C)C(=O)NCCC(=O)N[C@@H](C)CN(C)C [Compound 5942, (2S)-2-[(2S)-4-cyclohexyl-2-{[(2S)-1-hexanoylpyrrolidin-2-yl]formamido}butanamido]-N-(1-{[(1S)-1-{[(1S)-1-{[1-({1-[(2-{[(2S)-1-(dimethylamino)propan-2-yl]carbamoyl}ethyl)carbamoyl]-1-methylethyl}carbamoyl)-1-methylethyl]carbamoyl}-3-methylbutyl]carbamoyl}-3-methylbutyl]carbamoyl}-1-methylethyl)-4-methylpentanamide] (Hexanoyl-P[hCha]L[Aib]LL[Aib][Aib][βAla]-{NH((S)CH(Me)CH2NMe2)})",4,< 35.4,0.3,42600,148,0.9
"CCCCCCCC[C@H](NC(=O)[C@@H]1CCCN1C(C)=O)C(=O)N[C@H](C(=O)NC(C)(C)C(=O)N[C@@H](CC(C)C)C(=O)N[C@@H](CC(C)C)C(=O)NC(C)(C)C(=O)NC(C)(C)C(=O)NCCC(=O)N[C@@H](C)CN(C)C)[C@H](O)C(C)C [Compound 5588, (2S)-2-{[(2S)-1-acetylpyrrolidin-2-yl]formamido}-N-[(1S,2R)-1-[(1-{[(1S)-1-{[(1S)-1-{[1-({1-[(2-{[(2S)-1-(dimethylamino)propan-2-yl]carbamoyl}ethyl)carbamoyl]-1-methylethyl}carbamoyl)-1-methylethyl]carbamoyl}-3-methylbutyl]carbamoyl}-3-methylbutyl]carbamoyl}-1-methylethyl)carbamoyl]-2-hydroxy-3-methylbutyl]decanamide] (Ac-P[Gly(octyl)][Leu(3R-OH)][Aib]LL[Aib][Aib][βAla]-{NH((S)CH(Me)CH2NMe2)})",2330,463,6,4.6,3540,9.6
"CCCCCCCC[C@H](NC(=O)[C@@H]1CCCN1C(=O)CCCCC)C(=O)N[C@@H](CC(C)C)C(=O)NC(C)(C)C(=O)N[C@@H](CC(C)C)C(=O)N[C@@H](CC(C)C)C(=O)NC(C)(C)C(=O)NC(C)(C)C(=O)NCCC(=O)NCCCN(C)C [Compound 5890, (2S)-N-[(1S)-1-[(1-{[(1S)-1-{[(1S)-1-{[1-({1-[(2-{[3-(dimethylamino)propyl]carbamoyl}ethyl)carbamoyl]-1-methylethyl}carbamoyl)-1-methylethyl]carbamoyl}-3-methylbutyl]carbamoyl}-3-methylbutyl]carbamoyl}-1-methylethyl)carbamoyl]-3-methylbutyl]-2-{[(2S)-1-hexanoylpyrrolidin-2-yl]formamido}decanamide] (Hexanoyl-P[Gly(octyl)]L[Aib]LL[Aib][Aib][βAla]-{NH(CH2)3NMe2})",44,42500,44200,0.7,592,0.2
"CCCCCCCC[C@H](NC(=O)[C@@H]1CCCN1C(=O)CCCCC)C(=O)N[C@@H](CC(C)C)C(=O)NC(C)(C)C(=O)N[C@H](CC(C)C)C(=O)N[C@H](CC(C)C)C(=O)NC(C)(C)C(=O)NC(C)(C)C(=O)NCCC(=O)N[C@@H](C)CN(C)C [Compound 5850, (2S)-N-[(1S)-1-[(1-{[(1R)-1-{[(1R)-1-{[1-({1-[(2-{[(2S)-1-(dimethylamino)propan-2-yl]carbamoyl}ethyl)carbamoyl]-1-methylethyl}carbamoyl)-1-methylethyl]carbamoyl}-3-methylbutyl]carbamoyl}-3-methylbutyl]carbamoyl}-1-methylethyl)carbamoyl]-3-methylbutyl]-2-{[(2S)-1-hexanoylpyrrolidin-2-yl]formamido}decanamide] (Hexanoyl-P[Gly(octyl)]L[Aib][dL][dL][Aib][Aib][βAla]-{NH((S)CH(Me)CH2NMe2)})",319,71.5,18.5,8.8,820,0.9
"CCCCCCCC[C@H](NC(=O)[C@@H]1CCCN1C(=O)CCCCC)C(=O)N[C@@H](CC(C)C)C(=O)NC(C)(C)C(=O)N[C@@H](CC(C)C)C(=O)N[C@@H](CC(C)C)C(=O)NC(C)(C)C(=O)NC(C)(C)C(=O)NCCC(=O)NCCN(CCC)CCC [Compound 5888, (2S)-N-[(1S)-1-[(1-{[(1S)-1-{[(1S)-1-{[1-({1-[(2-{[2-(dipropylamino)ethyl]carbamoyl}ethyl)carbamoyl]-1-methylethyl}carbamoyl)-1-methylethyl]carbamoyl}-3-methylbutyl]carbamoyl}-3-methylbutyl]carbamoyl}-1-methylethyl)carbamoyl]-3-methylbutyl]-2-{[(2S)-1-hexanoylpyrrolidin-2-yl]formamido}decanamide] (Hexanoyl-P[Gly(octyl)]L[Aib]LL[Aib][Aib][βAla]-X6)",37.5,14.8,18000,22700,446,35900
"CCCCCCCC[C@H](NC(=O)/C=C/[C@@H](C)CC)C(=O)N[C@H](C(=O)NC(C)(C)C(=O)N[C@@H](CC(C)C)C(=O)N[C@@H](CC(C)C)C(=O)NC(C)(C)C(=O)NC(C)(C)C(=O)NCCC(=O)N[C@@H](C)CN(C)C)[C@H](O)C(C)C [Compound 5586, (2S)-N-[(1S,2R)-1-[(1-{[(1S)-1-{[(1S)-1-{[1-({1-[(2-{[(2S)-1-(dimethylamino)propan-2-yl]carbamoyl}ethyl)carbamoyl]-1-methylethyl}carbamoyl)-1-methylethyl]carbamoyl}-3-methylbutyl]carbamoyl}-3-methylbutyl]carbamoyl}-1-methylethyl)carbamoyl]-2-hydroxy-3-methylbutyl]-2-[(2E,4S)-4-methylhex-2-enamido]decanamide] ({Hexenoyl(2E,4S-Me)}-[Gly(octyl)][Leu(3R-OH)][Aib]LL[Aib][Aib][βAla]-{NH((S)CH(Me)CH2NMe2)})",108,104,6.6,4.7,1150,18.8
"CCCCCCCC[C@H](NC(=O)[C@@H]1CCCN1C(=O)CCCCC)C(=O)N[C@H](C(=O)NC(C)(C)C(=O)N[C@@H](CC(C)C)C(=O)N[C@@H](CC(C)C)C(=O)NC(C)(C)C(=O)NC(C)(C)C(=O)NCCC(=O)N[C@@H](C)CN(C)C)[C@@H](C)O [Compound 5604, (2S)-N-[(1S,2R)-1-[(1-{[(1S)-1-{[(1S)-1-{[1-({1-[(2-{[(2S)-1-(dimethylamino)propan-2-yl]carbamoyl}ethyl)carbamoyl]-1-methylethyl}carbamoyl)-1-methylethyl]carbamoyl}-3-methylbutyl]carbamoyl}-3-methylbutyl]carbamoyl}-1-methylethyl)carbamoyl]-2-hydroxypropyl]-2-{[(2S)-1-hexanoylpyrrolidin-2-yl]formamido}decanamide] (Hexanoyl-P[Gly(octyl)]T[Aib]LL[Aib][Aib][βAla]-{NH((S)CH(Me)CH2NMe2)})",426,228,0.8,4,1290,3.6
"CCCCCCCC[C@H](NC(=O)[C@@H]1CCCN1C(=O)/C=C/[C@@H](C)CC)C(=O)N[C@H](C(=O)NC(C)(C)C(=O)N[C@@H](CC(C)C)C(=O)N[C@@H](CC(C)C)C(=O)NC(C)(C)C(=O)NC(C)(C)C(=O)NCCC(=O)NCCN1CCOCC1)[C@H](O)C(C)C [Compound 5569, (2S)-N-[(1S,2R)-2-hydroxy-3-methyl-1-[(1-methyl-1-{[(1S)-3-methyl-1-{[(1S)-3-methyl-1-{[1-methyl-1-({1-methyl-1-[(2-{[2-(morpholin-4-yl)ethyl]carbamoyl}ethyl)carbamoyl]ethyl}carbamoyl)ethyl]carbamoyl}butyl]carbamoyl}butyl]carbamoyl}ethyl)carbamoyl]butyl]-2-{[(2S)-1-[(2E,4S)-4-methylhex-2-enoyl]pyrrolidin-2-yl]formamido}decanamide] ({Hexenoyl(2E,4S-Me)}-P[Gly(octyl)][Leu(3R-OH)][Aib]LL[Aib][Aib][βAla]-{NH(2-morpholinoethyl)})",143,107,1.7,3.8,2420,17.9
